Experimental data reported in patent US10858388B2, “Selective progesterone receptor modulator (SPRM) regimen” (BAYER PHARMA AKTIENGESELLSCHAFT, priority 2015, dated 2020).
Entries after “also recorded” stand apart in the source; their conditions may differ.

Tests used:
Type in all cases: in vivo, human
[1] = system: subjects with uterine fibroids; assay: Study 15788: endometrial biopsies, PAEC and histology (Example 3)
Method: (§1) A randomized, parallel-group, double-blind, placebo-controlled, multi-center study to assess efficacy of different doses of Compound 1 where primary efficacy variable is Endometrium thickness and secondary efficacy variable is PAEC in subjects with uterine fibroids over a 3-month treatment [1×12 weeks/84 days]
The first endometrial biopsy was performed on Day 9+/−2 of the first or second menstrual cycle after screening visit 1, i.e. at screening visit 2.
Biopsy was determined by randomization. This means that subjects were randomized to the time point of the second biopsy and were informed about the group they are in, directly after randomization followed by stratification by dose group.
If a subject was randomized to this time point, the biopsy was scheduled on Day 9+/−2 of the first menstrual cycle after the treatment visit 2 (corresponding to Visit 5), i.e. during the last 4 weeks of study drug treatment. If no menstrual bleeding occurs between the treatment visit 2 (Visit 5) and the end of treatment (EoT) visit (Visit 6), the biopsy was performed at the end of treatment (EoT) visit (Visit 6).
(§2) If a subject was randomized to this time point, the biopsy was scheduled on Day 9+/−2 of the first menstrual cycle after the end of treatment. If no menstrual bleeding occurs until 12 weeks after end of treatment, i.e. until the follow-up visit 2 (Visit 8), a biopsy was performed at the follow-up visit 2 (Visit 8) and induction of bleeding was considered.
as §2, with “second” for “first”
as §2, with “subject is” for “subject was”, “Day 9+1-2” for “Day 9+/−2”, “the third” for “the first”, “after” for “after the”, “bleeding occurred” for “bleeding occurs”
The third endometrial biopsy was performed at the follow-up visit 3 (Visit 9), which was scheduled on Day 9+/−2 of the menstrual cycle which started following Week 20 after the end of treatment. If no bleeding episode occurred, Visit 9 was performed 24 weeks after end of treatment, i.e. Visit 9 took place 21 to 24 weeks after the end of treatment in all subjects. If the second endometrial biopsy was performed less than 6 weeks before the scheduled date of the third endometrial biopsy and pathological findings were absent, the third endometrial biopsy was not required.
After the end of treatment, subjects were followed up for 21 to 24 weeks (Follow-up period). […] In case of findings that require further follow-up, additional visits were scheduled according to normal standard practice.
(§3) Efficacy Measurement: • endometrial biopsies • cervical smear • transvaginal ultrasound TVU (endometrial thickness, ovaries)
FIG. 2: PAEC in biopsy after 1st/2nd/3rd bleeding episodes (menses). Pharmacodynamic effecs on the endometrium. Percentage of subjects with PAEC.

[2] = system: subjects with uterine fibroids; assay: Study 15788: endometrial thickness by transvaginal ultrasound, 3-month treatment (Example 3); details: 12 weeks
Method: as §1
(§4) Doses: 0.5 mg, 1 mg, 2 mg, or 4 mg once daily
(§5) Route of administration: Oral
(§6) Duration of treatment: 1×12 weeks (84 days)
Women, 18 to 50 years old, with uterine fibroids documented by transvaginal or abdominal ultrasound at screening with at least 1 uterine fibroid with largest diameter 3 cm and heavy menstrual bleeding (HMB) 80 ml were eligible for enrolment in the study.
Eligible subjects were equally randomized to one of the treatment groups (Placebo, 0.5 mg, 1 mg, 2 mg, or 4 mg Compound 1). Treatment started during the first week of the menstrual cycle following randomization. The treatment period consisted of 12 weeks (84 days) of daily tablet intake.
as §3
Subjects that were detected with endometrial thickness (double layer)>18 mm (or suspicious bleeding pattern, e.g. continuous spotting, unusually heavy bleeding), were immediately evaluated by an additional endometrial biopsy.

[3] = system: subjects with uterine fibroids; assay: Study 15788: amenorrhea, 3-month treatment (Example 4)
Method: A randomized, parallel-group, double-blind, placebo-controlled, multi-center study to assess efficacy of different doses of Compound 1 where primary efficacy variable is Amenorrhea, in subjects with uterine fibroids over a 3-month treatment [1×12 weeks/84 days]
as §4, §5, §6
Women, 18 to 50 years old, with uterine fibroids documented by transvaginal or abdominal ultrasound at screening with at least 1 uterine fibroid with largest diameter 3 cm and Heavy Menstrual Bleeding (HMB) 80 ml were eligible for enrolment in the study.
Eligible subjects were equally randomized to one of the treatment groups (Placebo, 0.5 mg, 1 mg, 2 mg, or 4 mg Compound 1). Treatment was started during the first week of the menstrual cycle following randomization. The treatment period consisted of 12 weeks (84 days) of daily tablet intake.
Efficacy Measurement: • daily documentation of bleeding intensity (electronic diary or eDiary) • Menstrual Pictogram MP (electronic diary or eDiary) • collection of sanitary products for analysis of menstrual blood loss with alkaline hematin (AH) method
Onset of amenorrhea is defined by the first day for which the menstrual blood loss (assessed by MP) for all subsequent 28-day periods up to the end of the treatment period is less than 2 ml.
The primary objective estimates the dose-response curve based on the primary endpoint women with amenorrhea by dose.

[4] = system: patient diagnosed with Uterine Fibroids; assay: Long term treatment of patients with Compound 1, summary findings
Description: Compound 1 is a potent Selective Progesterone Receptor Modulator (SPRM) and more particularly a competitive Progesterone Receptor (PR) antagonist creating alternatives for the treatment of Uterine Fibroids. […] Amenorrhea corresponds to the major objective of the treatment i.e. control of excessive uterine bleeding.

Cases of hyperplasia ([1]; endometrial biopsies): no cases of hyperplasia | PAECs during follow-up ([1]; follow-up after 12 weeks treatment, FIG. 2): returned to background level | Endometrial thickness at EoT, max ([2]; 0.5 mg once daily oral): (27.0, 5.2) mm | Subjects with maximum endometrium thickness >18 mm, (%) ([2]; 0.5 mg once daily oral): (3.4) % | Median endometrial thickness at EoT ([2]; 0.5 mg once daily oral, n = 57): 9.0 mm | Endometrial thickness at EoT, max ([2]; 1 mg once daily oral): (41.0, 7.0) mm | Subjects with maximum endometrium thickness >18 mm, (%) ([2]; 1 mg once daily oral): (12.5) % | Median endometrial thickness at EoT ([2]; 1 mg once daily oral, n = 56): 10.0 mm | Endometrial thickness at EoT, max ([2]; 2 mg once daily oral): (27.0, 4.7) mm | Subjects with maximum endometrium thickness >18 mm, (%) ([2]; 2 mg once daily oral): (3.5) % | Median endometrial thickness at EoT ([2]; 2 mg once daily oral, n = 58): 7.5 mm | Endometrial thickness at EoT, max ([2]; 4 mg once daily oral): (20.0, 4.9) mm | Median endometrial thickness at EoT ([2]; 4 mg once daily oral, n = 56): 8.5 mm | Trend in endometrial thickness under treatment ([2]; 0.5-4 mg once daily): no clear trend for an increase
Compound: C[C@]12C[C@H](c3ccc(S(C)(=O)=O)cc3)C3=C4CCC(=O)C=C4CC[C@H]3[C@@H]1CC[C@@]2(O)C(F)(F)C(F)(F)F [Compound 1, (11β,17β)-17-Hydroxy-11-[4-(methylsulphonyl)phenyl]-17-(pentafluoroethyl)estra-4,9-dien-3-one]
Treatment-emergent critical endometrial findings ([1]; 0.5-4 mg once daily, 12 weeks): No treatment-emergent critical endometrial findings occurred | Resolution of PAECs after bleeding episodes ([1]; break / follow-up after end of treatment): already resolved after one bleeding; also recorded: resolve PAECs already after one bleeding | Endometrial histology in biopsies at the end of follow-up ([1]; end of follow-up, all available samples): benign endometrial histology changes (PAEC) | Amenorrhea (<2 ml) at EoT (%) 12 Weeks ([3]; 0.5 mg once daily oral): 66.63% | Amenorrhea (<2 ml) at EoT (%) 12 Weeks ([3]; 1 mg once daily oral): 87.09% | Amenorrhea (<2 ml) at EoT (%) 12 Weeks ([3]; 2 mg once daily oral): 91.65% | Amenorrhea (<2 ml) at EoT (%) 12 Weeks ([3]; 4 mg once daily oral): 89.81% | Induction of amenorrhea ([3]; 0.5-4 mg once daily, 12 weeks): dose-dependent induction of amenorrhea | Heavy menstrual bleeding ([3]; 0.5-4 mg once daily, 12 weeks, FIG. 3): reduced quickly and sustainably | Subjects achieving amenorrhea during treatment ([3]; 12 weeks, FIG. 3): Most subjects even achieved amenorrhea already during treatment | Amenorrhea [4]: observed at early stage and with high intensity | Endometrial hypertrophy (TEAE) [4]: no endometrial hypertrophy was reported | Major safety findings [4]: no major safety findings were reported | Ovulation inhibition [4]: ovulation inhibition was observed | Pelvic pain [4]: found to be reduced | Uterine fibroids size [4]: clearly reduced
